In ChEMBL document CHEMBL5726069, “1-(3-aminopropyl) substituted cyclic amine compounds, preparation method therefor, and pharmaceutical compositions and uses thereof” (2019):

Molecular target: C-C chemokine receptor type 5 (Homo sapiens, UniProt P51681)
Assay: Calcium Flux Inhibition Experiment: 1. HEK293 cells which can stably express CCR5 were inoculated in a 96-well plate and incubated overnight.2. The medium in each well into which cells were innoculated was removed and 40 μl/well of freshly prepared dye was added. The plate was placed in a 37° C. incubator and incubated for 40 minutes at constant temperature.3. The medicament to be determined was diluted with calcium buffer to eight concentration gradients, which is 1×10−4 M, 1×10−5 M, 1×10−6 M, 1×10−7 M, 1×10−8 M, 1×10−9 M, 1×10−10 M, and 1×10−11 M, respectively, and homogeneously mixed.4. The dye was removed. Freshly prepared calcium buffer was used to wash for one time, 50 μl of calcium buffer was added.5. FlexStation II was used for detection. 25 μl of calcium buffer containing the medicament to be determined was added automatically from the 15th second. The fluorescence value at 525 nm was read ultimately.
Assay type: cell-based

Chain of C-C chemokine receptor type 5 (P51681 whole entry): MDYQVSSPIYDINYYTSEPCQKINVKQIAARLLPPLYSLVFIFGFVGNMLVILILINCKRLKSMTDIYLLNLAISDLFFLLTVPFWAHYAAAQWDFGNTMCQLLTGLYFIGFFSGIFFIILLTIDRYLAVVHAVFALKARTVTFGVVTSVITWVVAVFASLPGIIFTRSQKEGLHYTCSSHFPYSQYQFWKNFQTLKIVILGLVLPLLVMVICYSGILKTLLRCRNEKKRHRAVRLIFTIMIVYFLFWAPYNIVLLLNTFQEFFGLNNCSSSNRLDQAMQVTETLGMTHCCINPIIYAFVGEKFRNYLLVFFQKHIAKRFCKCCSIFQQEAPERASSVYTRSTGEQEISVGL

Row | SMILES | IC50
1 | Cc1ccc([C@H](CCN2C3CCC2CC(n2c(C)nnc2C(C)C)C3)NC(=O)CC#N)s1 (stereo partly drawn) | 8.29 nM
2 | Cc1nnc(C(C)C)n1C1CC2CCC(C1)N2CC[C@H](NC(=O)C1CCC(F)(F)CC1)c1ccc(Cl)s1 (stereo partly drawn) | 10.4 nM
3 | CC(=O)Nc1ccc([C@H](CCN2C3CCC2CC(n2c(C)nnc2C(C)C)C3)NC(=O)C2CCC(F)(F)CC2)s1 (stereo partly drawn) | 8.23 nM
4 | Cc1ccc([C@H](CCN2C3CCC2CC(n2c(C)nnc2C(C)C)C3)NC(=O)C2CCC(F)(F)CC2)s1 (stereo partly drawn) | 7.28 nM
5 | CC(=O)Oc1ccc([C@H](CCN2C3CCC2CC(n2c(C)nnc2C(C)C)C3)NC(=O)C2CCCCC2)s1 (stereo partly drawn) | 1.38 nM
6 | CCc1ccc([C@H](CCN2C3CCC2CC(n2c(C)nnc2C(C)C)C3)NC(=O)C2CCC(F)(F)CC2)s1 (stereo partly drawn) | 4.63 nM
7 | Cc1nnc(C(C)C)n1C1CC2CCC(C1)N2CC[C@H](NC(=O)C1CCC(F)(F)CC1)c1nccs1 (stereo partly drawn) | 10.3 nM
8 | Cc1nnc(C(C)C)n1C1CC2CCC(C1)N2CC[C@H](NC(=O)C1CCC(F)(F)CC1)c1csc2ccccc12 (stereo partly drawn) | 11.4 nM
9 | Cc1nnc(C(C)C)n1C1CC2CCC(C1)N2CC[C@H](NC(=O)C1CCC(F)(F)CC1)c1ccc(F)s1 (stereo partly drawn) | 9.33 nM
10 | Cc1nnc(C(C)C)n1C1CC2CCC(C1)N2CC[C@H](NC(=O)C1CCCCC1)c1ccc(C(=O)N(C)C)s1 (stereo partly drawn) | 1.64 nM
11 | Cc1nnc(C(C)C)n1C1CC2CCC(C1)N2CCC(NC(=O)C1CCC(F)(F)CC1)c1cccs1 (stereo not drawn) | 1.95 nM
12 | CNC(=O)c1ccc([C@H](CCN2C3CCC2CC(n2c(C)nnc2C(C)C)C3)NC(=O)C2CCC(F)(F)CC2)s1 (stereo partly drawn) | 13.7 nM
13 | Cc1nnc(C(C)C)n1C1CC2CCC(C1)N2CC[C@H](NC(=O)C1CCC(F)(F)CC1)c1ccc(C#N)s1 (stereo partly drawn) | 9.45 nM
